This passage reports IC50 results from patent US11046699B2, “Pyrazolo-pyrimidin-amino-cycloalkyl compounds and their therapeutic uses” (RAPT THERAPEUTICS, INC., priority 2018, dated 2021).

Chain of GCN2 (Q9P2K8 whole entry): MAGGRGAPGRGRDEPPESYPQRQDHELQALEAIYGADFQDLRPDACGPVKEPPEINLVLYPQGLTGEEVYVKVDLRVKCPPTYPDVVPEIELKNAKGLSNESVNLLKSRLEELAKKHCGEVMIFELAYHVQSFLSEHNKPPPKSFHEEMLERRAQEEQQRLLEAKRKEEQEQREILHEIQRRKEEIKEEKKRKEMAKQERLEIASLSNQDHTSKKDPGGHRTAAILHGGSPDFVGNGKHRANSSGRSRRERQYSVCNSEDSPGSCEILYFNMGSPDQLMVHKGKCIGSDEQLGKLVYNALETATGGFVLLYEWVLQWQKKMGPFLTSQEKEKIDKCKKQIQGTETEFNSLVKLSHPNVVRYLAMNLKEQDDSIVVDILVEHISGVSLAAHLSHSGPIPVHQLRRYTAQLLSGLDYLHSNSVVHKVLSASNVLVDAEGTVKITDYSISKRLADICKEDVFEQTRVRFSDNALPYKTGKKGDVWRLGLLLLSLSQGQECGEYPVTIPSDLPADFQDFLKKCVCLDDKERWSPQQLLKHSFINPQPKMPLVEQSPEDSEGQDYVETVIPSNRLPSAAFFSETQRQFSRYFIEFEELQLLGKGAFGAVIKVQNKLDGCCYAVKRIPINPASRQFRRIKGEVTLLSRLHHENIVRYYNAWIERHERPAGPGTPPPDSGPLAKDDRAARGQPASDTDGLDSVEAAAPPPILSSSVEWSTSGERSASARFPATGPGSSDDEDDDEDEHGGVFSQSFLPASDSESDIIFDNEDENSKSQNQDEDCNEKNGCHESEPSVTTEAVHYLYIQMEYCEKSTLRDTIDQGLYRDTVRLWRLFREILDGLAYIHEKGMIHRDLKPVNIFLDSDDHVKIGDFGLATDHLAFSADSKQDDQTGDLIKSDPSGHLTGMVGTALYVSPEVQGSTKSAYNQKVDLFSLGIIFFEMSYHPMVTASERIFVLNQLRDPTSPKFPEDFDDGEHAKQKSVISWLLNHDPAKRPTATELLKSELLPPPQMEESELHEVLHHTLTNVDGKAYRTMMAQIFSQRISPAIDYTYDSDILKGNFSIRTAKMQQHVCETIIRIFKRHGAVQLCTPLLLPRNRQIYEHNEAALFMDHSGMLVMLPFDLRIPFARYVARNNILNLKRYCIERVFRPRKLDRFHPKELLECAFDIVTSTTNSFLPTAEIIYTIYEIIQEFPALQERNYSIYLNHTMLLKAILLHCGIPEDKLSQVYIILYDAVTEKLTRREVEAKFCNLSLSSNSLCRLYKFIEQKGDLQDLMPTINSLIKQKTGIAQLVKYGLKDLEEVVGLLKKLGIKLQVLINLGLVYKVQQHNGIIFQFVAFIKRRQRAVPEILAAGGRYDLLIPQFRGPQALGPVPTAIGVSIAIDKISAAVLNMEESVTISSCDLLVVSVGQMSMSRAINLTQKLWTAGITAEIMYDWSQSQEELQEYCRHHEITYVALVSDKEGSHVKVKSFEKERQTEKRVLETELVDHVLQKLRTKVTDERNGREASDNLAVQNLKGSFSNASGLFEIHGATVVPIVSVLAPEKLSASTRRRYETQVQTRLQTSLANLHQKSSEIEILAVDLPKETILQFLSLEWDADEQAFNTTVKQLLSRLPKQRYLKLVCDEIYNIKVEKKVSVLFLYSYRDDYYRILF

The target in the first test is GCN2 (Homo sapiens, UniProt Q9P2K8). The experiment in a line: GCN2 enzymatic endpoint assay: phosphorylation of GFP-eIF2α measured by TR-FRET (Lanthascreen). The format is biochemical. Particulars: GCN2 biochemical IC50; 4 nM GCN2, 2 μM ATP, 80 nM GFP-eIF2α, 90 min RT; read-out: GCN2 activity. The method, boiled down:
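Phosphorylated eIF2α read by Lanthascreen TR-FRET (acceptor 520 nm over donor 495 nm) after EDTA stop. The reaction ran 90 min at room temperature on 80 nM GFP-eIF2α with 2 μM ATP.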
(TR-FRET usually uses a lanthanide donor and a delayed reading to cut background.)
For the compound `CNC(=O)[C@]1(C)CC[C@@H](Nc2ncc3c(Br)nn(-c4ccc5ncc(C(C)(C)O)cc5c4)c3n2)C1` [Example 21, (1R,3R)-3-((3-bromo-1-(3-(2-hydroxypropan-2-yl)quinolin-6-yl)-1H-pyrazolo[3,4-d]pyrimidin-6-yl)amino)-N,1-dimethylcyclopentane-1-carboxamide], the IC50 lay within 0.025 to 0.2 µM.

The same test, now with this note: tested as described in Example 77; compound and/or hydrochloride, dihydrochloride or trifluoroacetic acid salt; read-out: IC 50 Activity.
For the compound `CNC(=O)[C@]1(C)CC[C@@H](Nc2ncc3c(Br)nn(-c4ccc5c(c4)CN(C(=O)CO)CC5)c3n2)C1` [(1R,3R)-3-[[3-bromo-1-[2-(2-hydroxyacetyl)-3,4-dihydro-1H-isoquinolin-7-yl]pyrazolo [3,4-d]pyrimidin-6-yl]amino]-N,1-dimethyl-cyclopentanecarboxamide], the IC50 fell in the range of 0.025 to 0.2 µM. As to `CNC(=O)[C@H]1CC[C@@H](Nc2ncc3c(Br)nn(-c4cnc5c(C#N)cccc5c4)c3n2)C1` [(1S,3R)-3-[[3-bromo-1-(8-cyano-3-quinolyl)pyrazolo[3,4-d]pyrimidin-6-yl]amino]-N-methyl-cyclopentanecarboxamide], the IC50 was 0.025 to 0.2 µM. As to `CNC(=O)C1CCN(C(=O)[C@@H]2CC[C@@H](Nc3ncc4c(Br)nn(-c5cc(F)c6ncccc6c5)c4n3)C2)C1` (mixture of isomers), the IC50 lay in the range of 0.025 to 0.2 µM. On the same count and under the same terms, for `CNC(=O)[C@]1(C)CC[C@@H](Nc2ncc3c(Br)nn(-c4ccc(-c5cncs5)cc4)c3n2)C1` [(1R,3R)-3-[[3-bromo-1-(4-thiazol-5-ylphenyl)pyrazolo[3,4-d]pyrimidin-6-yl]amino]-N,1-dimethyl-cyclopentane-carboxamide] the value was 0.025 to 0.2 µM; for `CNC(=O)[C@]1(C)CC[C@@H](Nc2ncc3c(Br)nn(-c4cc(C(C)(C)O)c5ncccc5c4)c3n2)C1` [(1R,3R)-3-[[3-bromo-1-[8-(1-hydroxy-1-methyl-ethyl)-6-quinolyl]pyrazolo[3,4-d]pyrimidin-6-yl]amino]-N,1-dimethyl-cyclopentanecarboxamide], 0.025 to 0.2 µM; for `CNC(=O)C1(CCS(C)(=O)=O)CC[C@@H](Nc2ncc3c(Br)nn(-c4ccc(-c5nnc(C)s5)c(CCC#N)c4)c3n2)C1` (some centres unmarked), 0.025 to 0.2 µM.

As for `CN(CC(N)=O)C(=O)[C@@H]1CC[C@@H](Nc2ncc3c(Br)nn(-c4cc(F)c5ncccc5c4)c3n2)C1` [(1R,3R)-N-(2-amino-2-oxoethyl)-3-((3-bromo-1-(8-fluoroquinolin-6-yl)-1H-pyrazolo[3,4-d]pyrimidin-6-yl)amino)-N-methylcyclopentane-1-carboxamide], the IC50 was 0.025 to 0.2 µM. Regarding `CNC(=O)[C@]1(C)CC[C@@H](Nc2ncc3c(Br)nn(-c4cc(CCNC(=O)C(C)C)c5ncccc5c4)c3n2)C1` [(1R,3R)-3-[[3-bromo-1-[8-[2-(2-methyl-propanoylamino)ethyl]-6-quinolyl]pyrazolo [3,4-d]pyrimidin-6-yl]amino]-N,1-dimethyl-cyclopentanecarboxamide], the IC50 was in the range of 0.025 to 0.2 µM.

Regarding `CNC(=O)[C@]1(C)CC[C@@H](Nc2ncc3c(Br)nn(-c4cc(C5CCCO5)c5ncccc5c4)c3n2)C1` (stereo partly drawn) [(1R,3R)-3-[[3-bromo-1-(8-tetrahydrofuran-2-yl-6-quinolyl)pyrazolo[3,4-d]pyrimidin-6-yl]amino]-N,1-dimethyl-cyclopentane-carboxamide], the IC50 lay within 0.025 to 0.2 µM. For `O=S(=O)([C@@H]1CC[C@@H](Nc2ncc3c(Br)nn(-c4ccc5ncccc5c4)c3n2)C1)N1CCOCC1` [3-bromo-N-((1R,3R)-3-(morpholinosulfonyl)cyclopentyl)-1-(quinolin-6-yl)-1H-pyrazolo [3,4-d]pyrimidin-6-amine], the IC50 lay in the range of 0.2 to 0.5 µM. Regarding `COCCNC(=O)[C@]1(C)CC[C@@H](Nc2ncc3c(Br)nn(-c4ccc5ncccc5c4)c3n2)C1` [(1R,3R)-3-((3-bromo-1-(quinolin-6-yl)-1H-pyrazolo[3,4-d]pyrimidin-6-yl)amino)-N-(2-methoxyethyl)-1-methylcyclopentane-1-carboxamide], the IC50 lay within 0.025 to 0.2 µM. Regarding `CNC(=O)[C@]1(C#N)CC[C@@H](Nc2ncc3c(Br)nn(-c4ccc(-c5nnc(C)s5)c(CCC#N)c4)c3n2)C1`, the IC50 fell in the range of 0.025 to 0.2 µM.

With `O=S(=O)(NC1CCOCC1)[C@@H]1CC[C@@H](Nc2ncc3c(Br)nn(-c4ccc5ncccc5c4)c3n2)C1` [(1R,3R)-3-((3-bromo-1-(quinolin-6-yl)-1H-pyrazolo[3,4-d]pyrimidin-6-yl)amino)-N-(tetrahydro-2H-pyran-4-yl)cyclopentane-1-sulfonamide], the IC50 fell in the range of 0.2 to 0.5 µM.

In the case of `O=C(O)CCNC(=O)[C@@H]1CC[C@@H](Nc2ncc3c(Br)nn(-c4cc(F)c5ncccc5c4)c3n2)C1` [3-((1R,3R)-3-((3-bromo-1-(8-fluoroquinolin-6-yl)-1H-pyrazolo[3,4-d]pyrimidin-6-yl)amino)cyclopentane-1-carboxamido) propanoic acid], the IC50 is 0.025 to 0.2 µM. With `CNC(=O)[C@]1(C)CC[C@@H](Nc2ncc3c(Br)nn(-c4ccc5nncn5c4)c3n2)C1` [(1R,3R)-3-[[3-bromo-1-([1,2,4]triazolo [4,3-a]pyridin-6-yl)pyrazolo[3,4-d]pyrimidin-6-yl]amino]-N,1-dimethyl-cyclopentanecarboxamide], the IC50 lay within 0.025 to 0.2 µM.

Regarding `COC1CCN(C(=O)[C@]2(C)CC[C@@H](Nc3ncc4c(Br)nn(-c5cc(F)c6ncccc6c5)c4n3)C2)C1` (stereo partly drawn) [[(1R,3R)-3-[[3-bromo-1-(8-fluoro-6-quinolyl)pyrazolo[3,4-d]pyrimidin-6-yl]amino]-1-methyl-cyclopentyl]-(3-methoxypyrrolidin-1-yl)methanone], the IC50 fell in the range of 0.025 to 0.2 µM. Turning to `CNC(=O)[C@]1(C)CC[C@@H](Nc2ncc3c(Br)nn(-c4cc(CCNC(C)=O)c5ncccc5c4)c3n2)C1` [(1R,3R)-3-[[1-[8-(2-acetamidoethyl)-6-quinolyl]-3-bromo-pyrazolo[3,4-d]pyrimidin-6-yl]amino]-N,1-dimethyl-cyclopentane-carboxamide], the IC50 was in the range of 0.025 to 0.2 µM.

`CNC(=O)[C@]1(C)CC[C@@H](Nc2ncc3c(Br)nn(-c4cc(Cl)cc(C(C)O)c4)c3n2)C1` (some centres unmarked): the IC50 was less than 0.025 µM.

In the case of `CC(C)N(CC(N)=O)C(=O)[C@@H]1CC[C@@H](Nc2ncc3c(Br)nn(-c4cc(F)c5ncccc5c4)c3n2)C1` [(1R,3R)-N-(2-amino-2-oxoethyl)-3-((3-bromo-1-(8-fluoroquinolin-6-yl)-1H-pyrazolo[3,4-d]pyrimidin-6-yl)amino)-N-isopropylcyclopentane-1-carboxamide], the IC50 lay in the range of 0.025 to 0.2 µM.

Turning to `CNC(=O)[C@]1(C)CC[C@@H](Nc2ncc3c(I)nn(-c4ccc(-c5nnc(C)o5)cc4)c3n2)C1` [(1R,3R)-3-[[3-iodo-1-[4-(5-methyl-1,3,4-oxadiazol-2-yl)phenyl]pyrazolo[3,4-d]pyrimidin-6-yl]amino]-N,1-dimethyl-cyclopentanecarboxamide], the IC50 was less than 0.025 µM. Consider `CS(=O)(=O)CCNC(=O)[C@@H]1CC[C@@H](Nc2ncc3c(Br)nn(-c4cc(F)c5ncccc5c4)c3n2)C1` [(1R,3R)-3-((3-bromo-1-(8-fluoroquinolin-6-yl)-1H-pyrazolo[3,4-d]pyrimidin-6-yl)amino)-N-(2-(methylsulfonyl)ethyl)cyclo-pentane-1-carboxamide], for which the IC50 was in the range of 0.2 to 0.5 µM. With `CCN(C)C(=O)[C@]1(C)CC[C@@H](Nc2ncc3c(Br)nn(-c4cc(F)c5ncccc5c4)c3n2)C1` [(1R,3R)-3-[[3-bromo-1-(8-fluoro-6-quinolyl)pyrazolo[3,4-d]pyrimidin-6-yl]amino]-N-ethyl-N,1-dimethyl-cyclopentanecarboxamide], the IC50 was less than 0.025 µM.
